Measured values taken from US11497796B2, “Agents directed against a cis RGMa/neogenin interaction or lipid rafts and use of the same in methods of treatment” (UNIVERSITY HEALTH NETWORK, priority 2013, dated 2022).

What was measured:
[1] = test system: temporal retinal explants (axonal outgrowth); experiment: Retinal explants outgrowth assay; format: cell-based, chick; conditions: for outgrowth of retinal explants grown on RGMa proteins, peptide added to medium: 5 μg/ml in the medium
Protocol: Poly-L-Lysine (SIGMA; 10 μg/ml) coated glass coverslips were treated with Laminin (Invitrogen; 10 μg/ml) and RGMa proteins (5 μg/ml) and incubated for 3 hours at room temperature. Temporal retinal explants were cultured on protein-coated surfaces for 18 hours. To disrupt the lipid rafts, explants were pretreated with 10 mM methyl-β-cyclodextrin (MβCD) for 12 minutes or 2 U/ml cholesterol oxidase (CO) for 1 hour at 37° C. Explants were then fixed with 4% paraformaldehyde (PFA) and stained with Alexa488-phalloidin. Fiber length was quantified using Image Pro 5.0. For immunolocalization, explants were treated with Cholera Toxin B-FITC (C1655; Sigma; 10 mg/mL) and patched, fixed and stained with Neogenin antibody. Retinal ganglion cells (RGCs) were electroporated with RGMa-His and cultured for 18 hours. The cells were fixed and stained with Neogenin and His-tag antibodies.
Retinal explants outgrowth assay. Poly-L-Lysine (PLL; SIGMA; 10 μg/ml) coated glass coverslips were treated with Laminin (10 μg/ml; Invitrogen) and RGMa proteins (5 μg) and incubated for 3 hrs at room temperature. PLL treated coverslips were coated with myelin overnight (6 μg/cm2), followed by coating with Laminin. Temporal retinal explants were cultured on either myelin or protein-coated surfaces in DMEM F-12 media (2% chick serum, 10% FBS) for 18 h. To disrupt rafts, explants were pre-treated with 10 mM MβCD for 12 min or 2 U/ml CO for 1 h at 37° C., washed, and cultured on protein coated coverslips. Explants were then fixed with 4% PFA and stained with Alexa488-fluor-phalloidin (1:50; Molecular Probes). Fiber length was quantified using Image Pro 5.0.
Statistical analysis of retinal outgrowth assays was performed using Student's two-tail t-test using Excel (Microsoft). Results were expressed as the mean±SEM (n=at least 3 independent experiments; 2 duplicates per independent experiment, >10 explants per duplicate).

[2] = test system: retinal ganglion cells (RGCs); experiment: Retinal organotypic cultures (whole mounts), propidium iodide cell death; format: cell-based; conditions: for reduction of cell death (relative PI intensity): agent in the medium
Protocol: (A) HEK293 cells that stably express RGMa (FIG. 11) were transfected with empty plasmid (Ctrl) or Neogenin (Neo). Neogenin induced cell death (arrows) when compared to control. (B) Quantification of cell death in Neogenin-transfected cells that were incubated in BSA (Neo+Ctrl), 4Ig (1 μg/ml), N-Raft (1 μg/ml), Noggin (100 nM), or MβCD (10 mM). […] Data were average±SEM (n=3 independent experiments), *p<0.0001. (C) Representative images and (D) Quantification of cell death in chick E5 tecta electroporated with GFP- and a Neogenin-expression plasmid and then injected with N-RGMa50-99 (Ctrl; 1 μg/ml), 4Ig (1 μg/ml), or N-Raft (1 μg/ml) and subjected to TUNEL assay. […] Data were an average±SEM from 3 different tecta/conditions (*p<0.001). Bar, 100 μm. (E) Representative images and (F) Quantification of retinal whole mounts incubated for 4 days with control peptide (1 μg/ml), 4Ig (1 μg/ml), N-Raft (1 μg/ml), or MβCD (10 mM) and dead cells were stained with Propidium Iodide (PI). Images from 9 whole mounts per condition from 3 independent experiments were taken at the same intensities and the fluorescence measured using ImageJ. […] Bar, 500 μm. (G) Fluorescence micrographs of flat-mounted retinas depicting Fluorogold-labeled retinal ganglion cells (RGCs) in injured retinas at 14 days following axotomy. Control retinas (Ctrl) had few surviving RGCs. 4Ig, N-raft or MβCD increased cell survival. Bar, 200 μm. (H) Representations of the retinal areas selected in our analyses. […] Data were average±SEM (n=6 eyes), *p<0.01.
For this study, retinal organotypic cultures were used, in which axotomy of retinal ganglion cells (RGCs) deprived the cells of tropic factors and induced apoptosis. Cell death was detected using propidium iodide (PI) and all images were taken at the same intensity with the RGC-layer in focus. Cell death was gauged by measuring the relative PI intensity of whole mounts.

[3] = test system: Neogenin association with lipid rafts; experiment: Lipid raft fractionation of injected chick brain/tecta; format: in vivo; conditions: injected into chick brain/optic tectum one day before fractionation
Protocol: Injected chick E8 tecta (4Ig, 2 mg/mL; N-raft, 1 mg/mL; methyl-β-cyclodextrin (10 mM)) or transfected cells (Neogenin and RGMa) were collected 24 hours later, lysed and placed at the bottom of a sucrose density gradient (0.9-0.8-0.75-0.7-0.6-0.5-0.4-0.2 M) and centrifuged at 38,000 rpm for 16 hours in SW 60 rotor (Beckman Instruments Inc.).
Proteins (4Ig, 2 mg/ml; N-Raft, 1 mg/mL; RGMaΔ, 5 mg/ml; methyl-β-cyclodextrin (10 mM)) were injected in chick E8 optic tectum and tecta were collected 24 hrs later. HEK cells were transfected with Neogenin and different RGMa constructs and collected 48 hrs later. For treatment with RGMaΔ, Neogenin transfected cells were treated with RGMaΔ (2 mg/ml) and BMP-2 (100 nM) and further incubated for 1 hr at 37° C. Tecta (3 tecta for each set of experiment) and/or cells were solubilized in chilled buffer (25 mM Tris-HCl, pH 7.4, 150 mM NaCl, 5 mM EDTA and protease inhibitor cocktail) and passed through G25 and G30 needles, respectively, and centrifuged at 800 g for 10 min at 4° C. Cold Triton X-100 was added to the post nuclear supernatant to a final concentration of 1% and incubated on ice for 1 hour. 2× volume of 2M sucrose was added and sample placed at the bottom of a sucrose density gradient (0.9-0.8-0.75-0.7-0.6-0.5-0.4-0.2 M) and centrifuged at 38,000 rpm for 16 hours in SW 60 rotor (Beckman Instruments Inc.). 400 μl fractions were collected from top (top numbered 1 and next eight fractions numbered consequently) and stored at −80° C.
As such, it was examined if overexpressing recombinant 4Ig and N-Raft competed with the endogenous 4Ig and N-Raft domains to displace Neogenin from the lipid raft fractions to the non-lipid raft fractions. Specifically, N-Raft, 4Ig-domain, or a control peptide, which was amino acid residues 50-99 of RGMa (also referred to herein as “N-RGMa^50-99”), was injected into the optic tectum at E8. The tecta were collected a day later for fractionation-analyses.

## N-Raft: peptide spanning amino acids 28-73 of RGMa (SEQ ID NO:2) (SPCKILKCNSEFWAATSGSHHLGAEETPEFCTALRAYAHCTRRTAR; N-Raft - amino acids 28-73 of RGMa)
[1]
  outgrowth of retinal explants grown on RGMa proteins, peptide added to medium: restored outgrowth
[1]; protein as substrate
  effect on axonal outgrowth when provided as growth substrate (in trans): no effect
[2]
  reduction of cell death (relative PI intensity): about 40%
[3]
  Neogenin localization in membrane fractions: relocalized from the lipid raft fractions to the heavy fractions

## methyl-β-cyclodextrin [MβCD, reference compound]
[1]; 10 mM MβCD or 2 U/ml of CO
  axonal outgrowth on RGMa proteins after lipid raft disruption: restored to control values
[2]; perturbing lipid rafts
  enhancement of cell survival vs. control: about 50%
[3]
  Neogenin localization in membrane fractions: recovered in the non-lipid raft fraction

B1: 4Ig: four immunoglobulin-like domains of Neogenin, amino acids 1 to 383 of Accession No. AAC59662 (SEQ ID NO:1) (protein, listed as Gallus gallus)
chain: RSGPRSPLTGSVVRTFTPFYFLVEPMDILSVRGASVIMNCSSYCETPPKIEWKKDGTLLNLVSDDRRQLLPDGSLLINSVVHSKHNKPDEGYYQCVATVESLGSIVSRTAKLTVAGLPRFTSQPELSSVYKGNSAILNCEVNVDLAPFVRWEQDRQPLSLDDRVFKLPSGALLIGNATDTDGGFYRCVIESGGTPKYSEEAELKILPDPEEPQSLVFVRQPSSLTKVTGQNAVFPCVAGGFPTPYVRWTKNGEELITEDSERFALRAGGSLLISDVTEEDVGTYTCIADNENETIEAQAELAVQVPPEFLKRPANIYAHESMDIVFECEVTGKPTPTVKWVKNGDVVIPSDYFKIVKEHNLQVLGLVKSDEGFYQCIAENDVGNAQAGAQLIILDLDVAIPTLPPTSLTSATNDHLAPATTGPLPTAPRDVVATLVSTRFIRLTWRTPVSDPQGDNLTYSIFYTKEGINRERVENTSRPGETQVMIQNLMPETVYVFRVVAQNKHGHGESSAPLKVATQPEVQLPGPAPNIRAYAGSPTSVTVTWETPLSGNGEIQNYKLYYMEKGQDSEQDVDVAGLSYTITGLKKYTEYSFRVVAYNKHGPGVSTQDVVVRTLSDVPSAAPQNLTLEARNSKSIMLHWQPPPAGTHSGQITGYKIRYRKVSRKSDVTESVGGTQLFQLIEGLERGTEYNFRIAAMTVNGTGPATDWVSAETFESDLDESRVPEVPSSLHVRPLVTSIVVSWTPPENQNIVVRGYAIGYGIGSPHAQTIKVDYKQRYYTIENLDPSSHYVITLKAFNNVGEGIPLYESAVTRPHSDTSEVDLFVINAPYTPVPDPSPMMPPVGVQASILSHDTIRITWADNSLPKNQKITDARYYTVRWKTNIPANTKYKTANATTLSYLVTGLKPNTLYEFSVMVTKGRRSSTWSMTAHGTTFELVPTSPPKDVTVVSKEGKPRTIIVNWQPPSEANGKITGYIIYYSTDVNAEIHDWVIEPVVGNRLTHQIQELTLDTPYYFKIQARNSKGMGPMSEAVQFRTPKAESSDKMPNDQASGSAGKGSRPVDVGPDYKPPLSGSNSPHGSPTSPLDSNMLLVIIVSVGVITIVIVVIVAVFCTRRTTSHQKKKRAACKSVNGSHKYKGNSKDVKPPDLWIHHERLELKPIDKSPDPNPIMTDTPIPRNSQDITPVDNSMDSNIHQRRNSYRGHESEDSMSTLAGRRGMRPKMMMPFDSQPPQPVISAHPIHSLDNPHHHFHSGSLASPTRSYLHHQVSPWPVGTSMSHSDRANSTESVRNTPSSDTMPASSSQPCADHQDPDSSSGAYLGSAQEEDAAQSLPTAHVRPSHPLKSFAVPAVPAAGSAYDPTLPSTPLLTQQAPSHPVHSVKTASIGTLGRTRPPMPVVVPSAPDVQETTRMLEDSESSYEPDELTKEMAHLEGLMKDLNAITTA
modifications: Neogenin - Accession No. AAC59662
[1]
  outgrowth of retinal explants grown on RGMa proteins, peptide added to medium: restored outgrowth
[2]
  reduction of cell death (relative PI intensity): about 40%
[3]
  Neogenin localization in membrane fractions: relocalized from the lipid raft fractions to the heavy fractions
